Measured values taken from ChEMBL document CHEMBL3507680, “University of Dundee, Gates Library screen for HepG2 cell viability”.

Assay: Human HepG2 cell viability assay in 384 well format
Type: toxicity, cell-based
Parameters: dose 125 nL, time 70.5 hour; concentration not given beside the values
Details: HepG2 cells, read-out: Inhibition

Row | Compound | cytotoxicity at 70.5 h [%]
1 | CC(Cn1cccn1)NC(=O)N1CCN(Cc2ccco2)CC1 (stereo not drawn) | 0.805
2 | Cc1ccoc1C(=O)N1CCCC(CNS(C)(=O)=O)C1 (stereo not drawn) | 18
3 | Cc1ccc(-c2ncc(C(=O)NCCNC(=O)C3CC3)s2)c(C)c1 | -6.37
4 | Cc1nc(C(C)C)sc1C(=O)NCCNc1ncccc1C#N | -1.44
5 | CC(=O)N1CCCN(C(=O)NC(C)Cn2cccn2)CC1 (stereo not drawn) | -3.94
6 | CN1N=C(C(=O)N2CCCC(n3cccn3)C2)CCC1=O (stereo not drawn) | -3.66
7 | COc1cc(C)nc(N2CCN(C(=O)c3cc(C)no3)CC2)n1 | 26.3
8 | Cc1ccc(-c2ncc(C(=O)NS(C)(=O)=O)s2)c(C)c1 | -1.13
9 | CN(Cc1cn(-c2ccccc2)nn1)C1CCCN(c2cccnn2)C1 (stereo not drawn) | -3.67
10 | Cc1nc(C)n(C2CCCN(C(=O)c3csc(C)n3)C2)n1 (stereo not drawn) | -5.49
11 | O=C(c1cc2cc(I)ccc2[nH]1)N1CCC(Nc2cccnn2)CC1 | 1.42
12 | CN(CCNC(=O)NCc1ccsc1)C1CCCC1 | -8.28
13 | CC(C)CCc1nc(CNCC2CN(C)CCO2)cs1 (stereo not drawn) | -1.37
14 | Cc1nccn1C1CCCN(C(=O)c2cccc(OCC(N)=O)c2)C1 (stereo not drawn) | -10.4
15 | Cc1nc(CNCC2CN(C3CC3)CCO2)cs1 (stereo not drawn) | 23.8
16 | Cc1nc(C2CCCN2C(=O)CCCn2cncn2)no1 (stereo not drawn) | -7.37
17 | Cn1cnc2c1CCN(Cc1csc(C3CCCCC3)n1)C2 | -14.4
18 | Cc1noc(C(C)C)c1C(=O)NCCCN1CCC(C)CC1 | -13
19 | Cc1noc(C(C)C)c1C(=O)NCCN1CCOCC1 | -17.9
20 | Cc1noc(C(C)C)c1C(=O)NCCC(=O)N1CCCCC1 | -19
21 | COCCN1CCN(CC(C)(O)c2cccc(C(F)(F)F)c2)CC1 (stereo not drawn) | -12.6
22 | COCc1nc(C(=O)N2CCCC(n3ccnc3C)C2)cs1 (stereo not drawn) | -18.6
23 | CCc1n[nH]c(C2CN(C(=O)c3ccnc(C)n3)CCO2)n1 (stereo not drawn) | 13.5
24 | CN(C)c1ncccc1CNS(=O)(=O)c1ccc(F)cc1F | -12.9

Row | Compound | cytotoxicity at 70.5 h [%]
25 | CC(=O)N1CCCN(C(=O)NCCOc2ccc3c(c2)OCO3)CC1 | -8.5
26 | CC(C)CS(=O)(=O)CC(=O)NC(C)c1nnc2n1CCC2 (stereo not drawn) | -2.61
27 | O=C(NCCOc1ccc2c(c1)OCO2)N1CCCC(CO)C1 (stereo not drawn) | -10
28 | Cc1nn(C)c(N(C)C)c1CNC(C)COc1ccccc1F (stereo not drawn) | -11.1
29 | CC(NC(=O)CCC1CCCCC1)c1nnc2n1CCC2 (stereo not drawn) | -4.91
30 | c1ccc(-n2ccc(CN3CCCCC3Cn3cncn3)n2)cc1 (stereo not drawn) | -12.9
31 | Cc1nccn1C1CCCN(C(=O)c2cccc(Cn3ccnc3)c2)C1 (stereo not drawn) | -1.32
32 | COCc1nc(C(=O)N2CCCC(n3ccnc3C(C)C)C2)cs1 (stereo not drawn) | -12.2
33 | CCn1nc2c(cc1=O)CN(CC(=O)Nc1nnc(C)s1)CC2 | -15
34 | CN1CCOC(CNCc2csc(C3CCCC3)n2)C1 (stereo not drawn) | -1.7
35 | CCc1nc(C2CCCN2C(=O)CCCn2cncn2)no1 (stereo not drawn) | -8.49
36 | Cc1nnc(NC(=O)CN2CCc3nn(C(C)C)c(=O)cc3C2)s1 | -6.14
37 | CC1CCCN(C(=O)CNC(=O)c2ccoc2)C1 (stereo not drawn) | 49.9
38 | Cc1cc(CN2CCCC(Cn3cncn3)C2)no1 (stereo not drawn) | 16
39 | CN(C)c1ccc(C(=O)N2CCCN(Cc3cscn3)CC2)nn1 | 27.8
40 | COc1ccc(-c2nnc(CNCCn3cc(C)cn3)o2)cc1 | 14.6
41 | CN1CCC/C1=N\S(=O)(=O)c1ccc(NC(=O)c2ccsc2)cc1 | -11.8
42 | Cc1ccc(C(=O)Nc2ccc(S(=O)(=O)/N=C3\CCCN3C)cc2)s1 | -10
43 | Cc1nc(CN2CCN(C(=O)c3ccnc(N(C)C)c3)CC2)cs1 | -14.4
44 | CN(C(=O)c1ccc(-n2ncc(C#N)c2N)cc1)C1CCCC1 | -1.19
45 | CCc1ccsc1C(=O)N1CCN(CC(N)=O)CC1 | 13.8
46 | CCN(Cc1cccc2c1OCO2)C(=O)Nc1ccccn1 | -9.07
47 | Cc1cc(NC(=O)CN2CCC(N3CCNC3=O)CC2)on1 | -5.65
48 | CCc1ccsc1C(=O)N1CCN(CCN2C(=O)CCC2=O)CC1 | -3.69

Row | Compound | cytotoxicity at 70.5 h [%]
49 | Cc1cnn(CC2CCCN2CC(=O)Nc2nccs2)c1 (stereo not drawn) | 3.35
50 | Cc1ccc(OCC(O)CN2CCC(Cn3cc(C)cn3)CC2)cc1 (stereo not drawn) | -0.66
51 | CCC(O)CN1CCN(C(=O)c2sccc2C2CC2)CC1 (stereo not drawn) | -2.13
52 | c1ccc(-c2cc(CN3CCCC(Cn4cncn4)C3)on2)cc1 (stereo not drawn) | -1.24
53 | Cc1cnn(CCNCc2nnc(-c3ccc(F)cc3)o2)c1 | -10.4
54 | Cc1cnn(CC2CCCN2CC(=O)Nc2cc(C)on2)c1 (stereo not drawn) | 0.558
55 | CC(C)c1nc(CN(C)C2CCN(Cc3nnc(C4CC4)o3)C2)no1 (stereo not drawn) | 1.8
56 | CCc1nc(CN(C)C2CCN(Cc3nnc(C4CCC4)o3)C2)no1 (stereo not drawn) | -0.232
57 | Cc1nc(CN(C)C2CCN(Cc3nnc(C4CC4)o3)C2)no1 (stereo not drawn) | 2.48
58 | Cc1cc(C)n(CC2CN(Cc3nc(C4CC4)no3)CCO2)n1 (stereo not drawn) | -4.87
59 | Cc1cc(C)n(CC2CN(Cc3noc(C)n3)CCO2)n1 (stereo not drawn) | 10.1
60 | c1ccc(CCCN2CCCC2Cn2cncn2)cc1 (stereo not drawn) | -3.86
61 | CCOc1cccc(CNC(=O)NCC(O)c2cccc(F)c2)c1 (stereo not drawn) | 10.6
62 | O=C(c1cccc2c1OCO2)N1CCCC(n2cccn2)C1 (stereo not drawn) | -9.01
63 | Fc1cccc(-c2nc(CN3CCOC(Cn4cccn4)C3)co2)c1 (stereo not drawn) | -11.5
64 | O=C(NCCN1CCOCC1)NCC(O)c1cccc(F)c1 (stereo not drawn) | -3.47
65 | Cc1nc(C)n(CC2CCCN(c3ncnc4c3CCC4)C2)n1 (stereo not drawn) | 26.1
66 | Cc1nn(C)c(Cl)c1C1CCCN1C(=O)c1cc(Cl)c[nH]1 (stereo not drawn) | -17.6
67 | O=C(O)c1ccc(S(=O)(=O)Nc2ccc(Cl)c(F)c2)c(F)c1 | -5.1
68 | COCCOc1ncccc1CNCc1c(C)nn(C)c1N(C)C | 2.93
69 | c1cnc(-c2nc(CN3CCOC(Cn4cncn4)C3)cs2)nc1 (stereo not drawn) | 11.7
70 | CC(C)(C)c1nc(CN2CCCC(Cn3cncn3)C2)cs1 (stereo not drawn) | 25.2
71 | CCOC(=O)NC(C(=O)NCc1ccc(N2CCCCC2)nc1)C(C)C (stereo not drawn) | -8.83
72 | COCc1cccc(CNCc2c(C)nn(C)c2N(C)C)c1 | 42.4

Row | Compound | cytotoxicity at 70.5 h [%]
73 | CCN(CC)C(C(=O)NCc1ccc(N2CCCC2)nc1)C(C)C (stereo not drawn) | 2.85
74 | Cc1ccc(NC(=O)N(C)Cc2cnn(C)c2)cc1OCC(F)F | 26.4
75 | Cc1csc(C2CCCN(C(=O)c3cnc4n[nH]c(C)c4c3)C2)n1 (stereo not drawn) | -10.8
76 | Cn1cc(C2CCCN2CCCc2nc(-c3cccs3)no2)cn1 (stereo not drawn) | -11.4
77 | Cc1cc(C)n(CC2CCCN2CC(=O)N(C)C)n1 (stereo not drawn) | -11.4
78 | c1cc(CN2CCCC(c3noc(C4CC4)n3)C2)no1 (stereo not drawn) | 3.46
79 | O=C(CCN1CCCC1c1cccs1)N1CCc2sccc2C1 (stereo not drawn) | -13.7
80 | O=C(COc1cccc(Br)c1)N1CCOCC1c1ncon1 (stereo not drawn) | -3.27
81 | Cc1cnn(CCC(=O)N2CCCC(c3nc(C)no3)C2)c1 (stereo not drawn) | 37.7
82 | CC(C)c1nc2n(n1)CC(NCc1nnnn1C1CC1)CC2 (stereo not drawn) | -5.21
83 | N#Cc1ccccc1CN1CCCCC1Cn1cncn1 (stereo not drawn) | -20
84 | Cc1nn(C)c(C)c1C1CCCN1CCCc1nc2ccccc2o1 (stereo not drawn) | -8.55
85 | COc1ccc(CCC(=O)Nc2cccnc2N2CCCC2)cc1Br | -5.48
86 | Cc1cc(C(=O)NCc2cccnc2OC(C)C)no1 | -31.2
87 | CC(NC(=O)CCOc1ccccc1Cl)c1nnc2n1CCC2 (stereo not drawn) | -16.2
88 | COc1cccc(COCC(=O)N2CCCC(c3nncn3C)C2)c1 (stereo not drawn) | -12.7
89 | O=C(NCc1ccc(-n2cncn2)nc1)c1ccc2c(c1)CCO2 | -10.1
90 | CC(NC(=O)Nc1cccnc1N1CCCC1)c1nncn1C (stereo not drawn) | -13.7
91 | O=C(NCc1ccc(-n2cncn2)nc1)c1ccoc1 | 22.2
92 | CC(NC(=O)COc1ccc(F)cc1)c1nnc2n1CCCCC2 (stereo not drawn) | -4
93 | CN1CCC(C(=O)NCc2nncn2-c2ccccc2)CC1=O (stereo not drawn) | -16.9
94 | Cc1nn(C)c(C)c1C1CCCN1CC(=O)NC(C1CC1)C1CC1 (stereo not drawn) | -2.06
95 | CCCn1[nH]cc/c1=N\C(=O)CN1CCCC1c1c(C)nn(C)c1C (stereo not drawn) | 16.9
96 | Cc1nc(C)n(C2CCCN(C(=O)c3cnc[nH]3)C2)n1 (stereo not drawn) | -7.11

Row | Compound | cytotoxicity at 70.5 h [%]
97 | CC(C)c1nc(C2CCCN2CCCc2nc3ccccc3o2)no1 (stereo not drawn) | -12.9
98 | Cc1cccc(CCC(=O)N2CCCC(c3cc(C(N)=O)[nH]n3)C2)c1 (stereo not drawn) | 19
99 | Cc1cnn(CCNCc2nnc(C3CC3)o2)c1 | 11.6
100 | O=C(NCC(=O)N1CCc2ccccc2C1)c1ccoc1 | 10.2
101 | CN(C)c1ccc(NC(=O)NCc2ccccn2)cn1 | -13.6
102 | Cc1ccc(F)cc1S(=O)(=O)NCc1cccnc1N(C)C | -10.3
103 | COc1cc(C)c(S(=O)(=O)NCc2cccnc2N(C)C)c(C)c1 | -5.54
104 | O=C(NCCn1ccnc1)N1CCN(c2nccs2)CC1 | 16.8
105 | CCC1CN(C(=O)NCCOc2ccc3c(c2)OCO3)CCO1 (stereo not drawn) | -19.8
106 | Cn1ccc(C(=O)NCc2cccc(N3CCCCC3=O)c2)cc1=O | -4.99
107 | COCCN1CCCN(C(=O)NC(C)Cn2cccn2)CC1 (stereo not drawn) | -14.2
108 | Cc1noc(C(C)C)c1C(=O)NCCCN1CCCC1 | -6.55
109 | O=C(c1ccc(F)cc1Cl)N1CCC(Nc2cccnn2)CC1 | -7.6
110 | Cn1cc(CC(=O)N2CCC(Nc3cccnn3)CC2)c2ccccc21 | -4.98
111 | CCn1nc2c(cc1=O)CN(CC(=O)Nc1nc(C)c(C)s1)CC2 | -13.9
112 | CCCn1nc2c(cc1=O)CN(CC(=O)Nc1ccncc1)CC2 | -17.2
113 | CCc1n[nH]c(C2CN(C(=O)c3nc(C)n4ccccc34)CCO2)n1 (stereo not drawn) | -20.1
114 | CC(NC(=O)CCn1cncn1)c1nnc2n1CCCCC2 (stereo not drawn) | -13.5
115 | CCN1CCN(CC(C)(O)c2cccc(C(F)(F)F)c2)CC1 (stereo not drawn) | -10.9
116 | CCc1n[nH]c(C2CN(C(=O)c3nc(C)ncc3Cl)CCO2)n1 (stereo not drawn) | -7.75
117 | c1ccc(-n2ncc(CN3CCCC3Cn3cccn3)n2)cc1 (stereo not drawn) | -15.5
118 | COc1c(CNC2CCc3cc(F)ccc32)c(C)nn1C (stereo not drawn) | -15.1
